Experiments:
KB cells = assay: Cell growth inhibition (XTT assay / total cell protein); format: cell-based, human
Protocol: Cell culture and treatment. KB cells were maintained in folate-free medium containing 10% serum (See, e.g., Quintana et al, Pharm. Res. 19, 1310 (2002)) to provide extracellular FA similar to that found in human serum. Cells were plated in 12-well plates for uptake studies, in 24-well plates for cell growth analysis, and in 96-well plates for XTT assay. Cells were rinsed with FA-free medium containing dialyzed serum and incubated at 37° C. with dendrimer-drug conjugates for the indicated time periods and concentrations. KB cells were also maintained in RPMI medium containing 2 μM FA to obtain cells which express low FAR.
Evaluation of dendrimer cytotoxicity. Cell growth was determined by assay of the total protein in lysates of treated cells using a bicinchoninic acid reagent (PIERCE, and by XTT assay, using a kit from Roche.
Because the binding of the conjugate to KB cells reaches maximal uptake within 1 h (Quintana et al, 2002. Pharmaceutical Research 19: 1310-1316.), the effect of the G5-FI-FA-MTX on cell growth was initially tested by pre-incubation of cells with the conjugate for 1 h, followed by incubation in a drug-free medium for 5 d. […] When the cells were pre-incubated with dendrimers for 4 h, there was a modest decrease of about 10% in cell growth as determined by XTT assay. The cytotoxicity measurements were therefore done by incubation with the dendrimer for a minimum of 24 h, a pre-incubation time period shown to induce significant cytotoxicity.
Time course and dose dependent inhibition of cell growth. Previous studies have shown that MTX-induced cytotoxicity is detectable in vitro only if the medium is completely deprived of FA (See, e.g., Sobrero & Bertino, Int. J. Cell Cloning 4, 51 (1986)). The effect of the trifunctional dendrimers on cell growth was tested in cells incubated in a FA-deficient medium. Cells were treated with 300 nM conjugates (equivalent of 1500 nM MTX) or 1500 nM free MTX for 1-4 days, and cell proliferation was determined by estimation of cellular protein content. Cells were treated for 2 days with different concentrations of the conjugates or free MTX (the conjugate concentration is given as MTX equivalents, with 5 MTX per dendrimer molecule). KB cells which express high and low FAR were incubated with 30 nM of the dendrimers for 1 hr at 37° C., rinsed, and the fluorescence of cells was determined by flow cytometric analysis (See. e.g., FIG. 21, left panel). Pre-incubation with 50 μM free FA for 30 min totally prevents cellular binding and uptake of the polymer conjugates (See. e.g., FIG. 21, left panel).
The inhibition of cell growth induced by the conjugates was also tested by XTT assay which is based on the conversion of XTT to formazan by the active mitochondria of live cells (See, e.g., Roehm et al, J Immunol Methods 142, 257 (1991)).
As growth inhibition induced by free MTX was higher than with the equimolar concentrations of MTX in the G5-FITC-FA-MTX below 1 μM (See, e.g., FIG. 21), it was tested whether the FA moiety in the G5-FITC-FA-MTX may be rescuing the cells from MTX-induced cytotoxicity. As the G5-FITC-FA-MTX preparation contained equimolar concentrations of MTX and FA, the effect of similar concentrations of free MTX and free FA on the inhibition of cell growth was determined. […] The cells were rinsed to remove the drugs and incubated with fresh medium for an additional 6 d, and total cell protein was determined. […]

s.c. human KB xenografts = assay: Targeted drug delivery to tumor, tumor growth and survival; format: in vivo, SCID mice; conditions: for effect on tumor growth: first trial
Protocol: Delivery of targeted nanoparticle therapeutic.
Statistical methods. Means, SD, and SE of the data were calculated. Differences between the experimental groups and the control groups were tested using Student's-Newman-Keuls' test and Ps<0.05 were considered significant.
Targeted drug delivery to tumor cells through the folate receptor. The efficacy of different doses of conjugates was tested on SCID CB-17 mice bearing s.c. human KB xenografts and was compared with equivalent and higher doses of free methotrexate. Mice were maintained on the folic acid-deficient diet for 3 weeks before injection of the KB tumor cells to achieve circulating levels of folic acid that approach those in human serum and to prevent down-regulation of folate receptors on tumor xenografts (See, Mathias et al., J Nucl Med 29, 1579 (1998)). Six groups of SCID mice with five mice in each group were injected s.c. on one flank with 5×10^6 KB cells in 0.2 mL PBS suspension. The highest total dose of G5-FI-FA-MTX therapeutic used equals 55.0 mg/kg and is equivalent to a 5.0 mg/kg total cumulative dose of free methotrexate (FIG. 29). The therapeutic dose of the conjugate was compared with three cumulative doses of free methotrexate equivalent to 33.3, 21.7, and 5.0 mg/kg accumulated in 10 to 15 injections based on mouse survival. Saline and the conjugate without methotrexate (G5-FI-FA) were used as controls.

[1] = mouse, in vivo
Protocol: (§1) Delivery of targeted nanoparticle therapeutic. Twice weekly, SCID mice with s.c. KB xenografts, starting on day 4 after tumor implantation, received via the tail vein an injection of either targeted or nontargeted conjugate containing methotrexate, a conjugate without methotrexate, free methotrexate, or saline as a control. The compounds were delivered in a 0.2 mL volume of saline per 20 g of mouse. The single dose of methotrexate delivered each time equaled 0.33 mg/kg. The higher doses of 1.67 and 3.33 mg/kg free methotrexate were also tested. The conjugates were delivered at equimolar concentration of methotrexate calculated based on the number of methotrexate molecules present in a nanoparticle. The conjugate without methotrexate was delivered at equimolar concentration of dendrimer. In the initial trial, six groups of mice with five mice in each group received up to 15 injections. In the follow-up trial, mice received up to 28 injections dependent on their survival. The body weights of the mice were monitored throughout the experiment as an indication of adverse effects of the drug. Histopathology of multiple organs was done at the termination of each trial and each time mouse had to be euthanized due to toxic effects or tumor burden. Tissues from lung, heart, liver, pancreas, spleen, kidney, and tumor were analyzed.
Toxicity of dendrimer conjugates. […]

[2] = Toxicity of dendrimer conjugates and free methotrexate in mice; conditions: cumulative doses 33.3 and 21.7 mg/kg
Protocol: as §1
Toxicity of dendrimer conjugates. […]

SMILES	reversal of MTX-induced growth-arrest by free FA (KB cells; 150 nM FA with 150 nM MTX, 24 h, then 6 d fresh medium, total cell protein)	increase of cell growth above that of the control cells (KB cells; 50 μM free FA with conjugate or free MTX 24 h, then 5 days, XTT)	growth inhibition by XTT assay (KB cells; 1, 2 or 3 days)	inhibition of cell growth (KB cells; FA-deficient medium, time course and dose dependence (FIGS. 21 and 22))	growth inhibition compared with equimolar MTX in G5-FITC-FA-MTX (KB cells; below 1 μM)	effect on tumor growth (s.c. human KB xenografts; cumulative dose equivalent to 5.0 mg/kg methotrexate (or equimolar dendrimer))	effect on tumor growth (s.c. human KB xenografts; cumulative doses 33.3 and 21.7 mg/kg)	day of trial by which all mice died (s.c. human KB xenografts; second 99-day trial)	survivors at the termination of the trial (s.c. human KB xenografts; second 99-day trial)	histopathology of the liver [1]	day of trial by which dose became lethal [2]
Nc1nc2ncc(CNc3ccc(C(=O)N[C@@H](CCC(=O)O)C(=O)O)cc3)nc2c(=O)[nH]1 [FA, folic acid]	almost completely reversed the growth-arrest	20%	–	–	–	–	–	–	–	–	–
CN(Cc1cnc2nc(N)nc(N)c2n1)c1ccc(C(=O)N[C@@H](CCC(=O)O)C(=O)O)cc1 [MTX, methotrexate]	–	–	time-dependent cytotoxicity	inhibited cell growth in a time- and dose-dependent fashion	higher	no effect on tumor growth	affecting tumor growth	≤ 66 days	no mice surviving	advanced liver lesions, collections of inflammatory cells, and periportal inflammation	32 to 36 days

Reference: patent publication US20070041934A1, “Dendrimer based compositions and methods of using the same” (priority 2005, published 2007)
